The record followed here is US8278345B2, “Inhibitors of glutaminyl cyclase” (Probiodrug AG, priority 2006, dated 2012).

For this experiment, the target named is hQC (Homo sapiens, UniProt Q16769). The experiment is described as follows: Inhibitor assay for glutaminyl cyclase activity (fluorometric, H-Gln-βNA / H-Gln-AMC). Type of experiment: biochemical. The settings on record: read-out: IC50. Put shortly: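 Coupled fluorometric assay at 30 °C with pyroglutamyl aminopeptidase, in Tris/HCl pH 8.0 with EDTA, substrate H-Gln-βNA (0.2 mM; ex/em 320/410 nm) or H-Gln-AMC (ex/em 380/460 nm), initiated by QC. Screening: 4 mM inhibitor, substrate at 1 KM; Ki from progress curves fitted to competitive inhibition.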
hQC, sequence (Q16769 29-361): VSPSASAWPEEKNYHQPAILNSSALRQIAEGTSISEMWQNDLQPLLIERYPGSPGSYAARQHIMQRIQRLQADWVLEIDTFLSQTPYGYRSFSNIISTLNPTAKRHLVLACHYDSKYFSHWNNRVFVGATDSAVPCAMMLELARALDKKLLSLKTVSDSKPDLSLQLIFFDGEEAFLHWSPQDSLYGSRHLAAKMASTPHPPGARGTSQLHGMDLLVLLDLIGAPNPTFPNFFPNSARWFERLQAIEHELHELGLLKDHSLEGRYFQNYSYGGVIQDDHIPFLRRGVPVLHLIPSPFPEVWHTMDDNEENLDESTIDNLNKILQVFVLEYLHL

As to `CCCC(=O)C1=C(O)C(=O)N(c2ccc3[nH]cnc3c2)C1c1cc(C(F)(F)F)cc(C(F)(F)F)c1` (centres unmarked) [Compound 335, 1-(1H-Benzoimidazol-5-yl)-5-(3,5-bis-trifluoromethyl-phenyl)-4-butyryl-3-hydroxy-1,5-dihydro-pyrrol-2-one], the IC50 – broadly, the concentration at which inhibition is half-maximal – was 6.79 µM. Turning to `CC1=C(O)C(=O)N(CCCn2ccnc2)C1c1c[nH]c2ccccc12` (centres unmarked) [Compound 39, 3-Hydroxy-1-(3-imidazol-1-yl-propyl)-5-(1H-indol-3-yl)-4-methyl-1,5-dihydro-pyrrol-2-one], the IC50 came out at 0.4 µM. To `CC(C)(C)C(=O)C1=C(O)C(=O)N(c2ccc3[nH]cnc3c2)C1c1ccco1` (centres unmarked) [Compound 419, 1-(1H-Benzoimidazol-5-yl)-4-(2,2-dimethyl-propionyl)-5-furan-2-yl-3-hydroxy-1,5-dihydro-pyrrol-2-one] belongs 4.09 µM. As for `O=C1C(O)=C(c2c[nH]c3ccccc23)C(c2cccs2)N1CCCn1ccnc1` (centres unmarked) [Compound 137, 3-Hydroxy-1-(3-imidazol-1-yl-propyl)-4-(1H-indol-3-yl)-5-thiophen-2-yl-1,5-dihydro-pyrrol-2-one], the figure is 0.4 µM; as for `CC1=C(O)C(=O)N(CCCn2ccnc2)C1c1ccc(C)c(C)c1` (centres unmarked) [Compound 29, 5-(3,4-Dimethyl-phenyl)-3-hydroxy-1-(3-imidazol-1-yl-propyl)-4-methyl-1,5-dihydro-pyrrol-2-one], 0.4 µM; as for `O=C1C(O)=C(c2c[nH]c3ccccc23)C(c2ccc3nonc3c2)N1c1ccc2[nH]cnc2c1` (centres unmarked) [Compound 390, 1-(1H-Benzoimidazol-5-yl)-5-(benzo[c][1,2,5]oxadiazol-5-yl)-3-hydroxy-4-(1H-indol-3-yl)-1,5-dihydro-pyrrol-2-one], 0.04 µM. As for `CSCC1=C(O)C(=O)N(c2ccc3[nH]cnc3c2)C1c1cccc(F)c1` (centres unmarked) [Compound 299, 1-(1H-Benzoimidazol-5-yl)-5-(3-fluoro-phenyl)-3-hydroxy-4-methylsulfanylmethyl-1,5-dihydro-pyrrol-2-one], the figure is 5.26 µM; as for `Cn1cc(C2C(c3c[nH]c4ccccc34)=C(O)C(=O)N2c2ccc3[nH]cnc3c2)c2ccccc21` (centres unmarked) [Compound 329, 1-(1H-Benzoimidazol-5-yl)-3-hydroxy-4-(1H-indol-3-yl)-5-(1-methyl-1H-indol-3-yl)-1,5-dihydro-pyrrol-2-one], 6.25 µM; as for `CCCCCC1=C(O)C(=O)N(CCCn2ccnc2)C1c1c(O)ccc2ccccc12` (centres unmarked) [Compound 207, 3-Hydroxy-5-(2-hydroxy-naphthalen-1-yl)-1-(3-imidazol-1-yl-propyl)-4-pentyl-1,5-dihydro-pyrrol-2-one], 3.1 µM. On to `CC1=C(O)C(=O)N(c2ccc3[nH]cnc3c2)C1c1c[nH]c2cc(C)ccc12` (centres unmarked) [Compound 436, 1-(1H-Benzoimidazol-5-yl)-3-hydroxy-4-methyl-5-(6-methyl-1H-indol-3-yl)-1,5-dihydro-pyrrol-2-one], for which the IC50 amounted to 0.49 µM. As for `O=C1C(O)=C(c2c[nH]c3ccccc23)C(CO)N1CCCn1ccnc1` (centres unmarked) [Compound 138, 3-Hydroxy-5-hydroxymethyl-1-(3-imidazol-1-yl-propyl)-4-(1H-indol-3-yl)-1,5-dihydro-pyrrol-2-one], the figure is 0.04 µM; as for `CCCCCC1=C(O)C(=O)N(CCCn2ccnc2)C1c1ccc(C)c(C)c1` (centres unmarked) [Compound 195, 5-(3,4-Dimethyl-phenyl)-3-hydroxy-1-(3-imidazol-1-yl-propyl)-4-pentyl-1,5-dihydro-pyrrol-2-one], 0.04 µM.

Regarding `CC(C)C1=C(O)C(=O)N(CCCn2ccnc2)C1c1ccc2[nH]ccc2c1` (centres unmarked) [Compound 58, 3-Hydroxy-1-(3-imidazol-1-yl-propyl)-5-(1H-indol-5-yl)-4-isopropyl-1,5-dihydro-pyrrol-2-one], the IC50 came to 3.1 µM.

Consider `CCCCC1C(C)=C(O)C(=O)N1CCCn1ccnc1` (centres unmarked) [Compound 48, 5-Butyl-3-hydroxy-1-(3-imidazol-1-yl-propyl)-4-methyl-1,5-dihydro-pyrrol-2-one], for which the IC50 came out at 2.2 µM.
